The structures appear in SMILES notation. Activity calls are given as the source filed them. No rule for the calls is given here.

This test deals with Gag-Pol polyprotein (Human immunodeficiency virus type 2 subtype A (isolate ROD)) (UniProt P04584). The test is described as follows: Reverse transcriptase ribonuclease H inhibitors, biochemical concentration-response (AID 367). To be noted: HIV-2 RNase H, FRET RNA/DNA substrate cleavage.
Sequence of Gag-Pol polyprotein (Human immunodeficiency virus type 2 subtype A (isolate ROD)) (P04584 whole entry, looked up): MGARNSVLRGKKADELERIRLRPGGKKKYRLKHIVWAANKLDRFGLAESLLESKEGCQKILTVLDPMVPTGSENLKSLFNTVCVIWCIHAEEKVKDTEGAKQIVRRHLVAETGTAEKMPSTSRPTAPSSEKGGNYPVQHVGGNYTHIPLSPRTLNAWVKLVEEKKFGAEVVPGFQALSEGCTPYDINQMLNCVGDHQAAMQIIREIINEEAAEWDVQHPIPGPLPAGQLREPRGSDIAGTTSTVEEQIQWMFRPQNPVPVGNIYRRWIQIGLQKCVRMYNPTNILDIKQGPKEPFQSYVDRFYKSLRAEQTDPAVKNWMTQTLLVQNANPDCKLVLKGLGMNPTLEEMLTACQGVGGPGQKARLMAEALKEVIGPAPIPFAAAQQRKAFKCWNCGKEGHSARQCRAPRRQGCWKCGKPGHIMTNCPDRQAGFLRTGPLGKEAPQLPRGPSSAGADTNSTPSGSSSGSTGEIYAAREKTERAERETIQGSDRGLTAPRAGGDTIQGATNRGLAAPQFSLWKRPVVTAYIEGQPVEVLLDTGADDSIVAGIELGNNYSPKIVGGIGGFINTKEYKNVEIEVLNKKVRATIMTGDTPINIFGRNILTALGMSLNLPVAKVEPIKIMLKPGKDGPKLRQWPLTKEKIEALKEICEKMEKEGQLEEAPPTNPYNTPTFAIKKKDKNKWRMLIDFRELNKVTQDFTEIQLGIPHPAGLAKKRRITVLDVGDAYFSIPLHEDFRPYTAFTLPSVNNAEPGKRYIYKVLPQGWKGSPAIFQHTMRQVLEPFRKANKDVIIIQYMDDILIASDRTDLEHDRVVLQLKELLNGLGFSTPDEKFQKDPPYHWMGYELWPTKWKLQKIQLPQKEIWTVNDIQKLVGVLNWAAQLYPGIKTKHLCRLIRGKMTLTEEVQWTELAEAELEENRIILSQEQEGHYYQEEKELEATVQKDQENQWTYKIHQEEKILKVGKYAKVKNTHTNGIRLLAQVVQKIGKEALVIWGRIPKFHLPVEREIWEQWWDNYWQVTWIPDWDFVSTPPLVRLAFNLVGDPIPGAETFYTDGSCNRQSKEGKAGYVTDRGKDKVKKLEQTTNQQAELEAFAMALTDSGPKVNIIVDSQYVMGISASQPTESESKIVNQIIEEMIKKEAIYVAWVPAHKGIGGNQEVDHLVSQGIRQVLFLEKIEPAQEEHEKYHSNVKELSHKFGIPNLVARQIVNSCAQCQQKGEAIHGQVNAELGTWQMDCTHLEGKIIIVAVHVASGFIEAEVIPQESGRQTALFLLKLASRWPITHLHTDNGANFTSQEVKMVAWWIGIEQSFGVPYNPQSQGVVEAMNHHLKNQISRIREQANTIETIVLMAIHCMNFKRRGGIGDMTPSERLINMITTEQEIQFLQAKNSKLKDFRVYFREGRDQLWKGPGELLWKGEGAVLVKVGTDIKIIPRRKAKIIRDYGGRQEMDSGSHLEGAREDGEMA
For `CC(=O)O[C@H](C)[C@@H]1C2=C(C(=O)C[C@]1(C)O)C(=O)c1c(ccc(-c3ccc4c(c3O)C(=O)C3=C(C4=O)[C@@H]([C@@H](C)OC(C)=O)[C@@](C)(O)CC3=O)c1O)C2=O`, the IC50 entry was “inactive”.

Regarding `O=C1C(Cl)=C(Nc2ccc(S(=O)(=O)Nc3ccccn3)cc2)C(=O)c2ccccc21`, the IC50 was 3.4 µM.

In the case of `CN1CC(O)C2=CC(=O)C(=O)C=C21` (stereo not drawn), the IC50 was 4 µM.

Take `COc1cccc(-c2nc3cc(NC(=O)/C=C\c4ccccc4)ccc3o2)c1`: the IC50 is 9.2 µM.

For the compound `O=[N+]([O-])c1ccc2c(N=Nc3ccc4ccccc4c3O)c(O)cc(S(=O)(=O)O)c2c1`, the IC50 was 2.2 µM.

For the compound `CC(=O)/C=C/C=C/c1ccc2c(c1)OC(CO)C(c1ccc(O)c(O)c1)O2` (stereo not drawn), the IC50 result was “inactive”.

In the case of `O=C(O)C1Nc2c(Cl)cc(Cl)cc2C2C=CCC12` (stereo not drawn), the IC50 entry was “inactive”.

As for `Nc1ccc(S(=O)(=O)O)c2cccc(O)c12`, the IC50 entry was “inactive”.

With `COc1ccc(-c2nc3sc(-c4ccc(OC)cc4)nc3s2)cc1`, the IC50 was 2.9 µM.

For `O=C1c2ccc(O)cc2C(=O)c2c1ccc(O)c2O`, the IC50 was 2 µM.

As to `CCCCCCCCCCCCCCCC(=O)OCC1OC(n2ccc(N)nc2=O)C(O)C1O` (stereo not drawn), the IC50 entry is “inactive”.

Consider `Cc1sc(NC(=O)c2ccc3c(c2)OCO3)c(C(N)=O)c1C`, for which the IC50 was 10 µM.

In the case of `O=C1c2ccccc2C(=O)c2c(O)c(O)cc(O)c21`, the IC50 is 5 µM.

As to `O=C1c2ccccc2C(=O)N1c1ccc(-c2nc3ccc(N4C(=O)c5ccccc5C4=O)cc3[nH]2)cc1`, the IC50 was 1.7 µM.

With `C=CC(C)(C)C12CC3C(=O)N/C(=C\c4cnc[nH]4)C(=O)N3C1Nc1ccccc12` (stereo not drawn), the IC50 is > 100 µM (inactive).

With `O=C1C=CC(=NS(=O)(=O)c2ccc(Cl)c([N+](=O)[O-])c2)C=C1`, the 50% inhibitory concentration (IC50) was 4.1 µM.

`O=C1C=CC(=O)c2c(O)cccc21`: the IC50 was 3.1 µM.

Turning to `Oc1cc(O)c2cc(O)c(-c3ccc(O)c(O)c3)[o+]c2c1`, the IC50 was 0.8 µM.

For the compound `COc1ccc(/C=C\C(=O)c2c(-c3ccccc3)c3cc(C)ccc3[nH]c2=O)c(OC)c1`, the IC50 entry was “inactive”.

Turning to `COc1cc(C)cc2c(-c3c(O)cc(O)c4c3C[C@@H](C)N[C@@H]4C)cc(-c3cc(-c4c(O)cc(O)c5c4C[C@@H](C)N[C@@H]5C)c4cc(C)cc(OC)c4c3O)c(O)c12`, the IC50 is 2.1 µM.

For `O=C(O)/C=C/c1c2ccc(=O)c(O)c-2oc2c(O)c(O)ccc12`, the IC50 was 0.5 µM.

As to `N#Cc1c(N)nc(SCC(=O)c2ccc(O)c(O)c2)c(C#N)c1-c1ccc(O)cc1`, the IC50 was 0.43 µM.

`O=C1NC(=S)N(c2ccccc2F)C(=O)C1=Cc1ccco1`: the IC50 was 2.6 µM.

As for `O=C1/C(=C\c2ccc(O)c(O)c2)SC(=S)N1c1cccc(Cl)c1`, the IC50 was 6.6 µM.

With `Oc1cc(CN2COc3ccccc32)c(O)cc1CNC1CCCCC1`, the IC50 is 2.9 µM.

For `C=CCN1C(=O)/C(=C\c2ccc([N+](=O)[O-])o2)C(=O)NC1=S`, the IC50 result is “inactive”.

In the case of `NC(=O)c1c(NC(=O)CCc2ccccc2)sc2c1CCCCCC2`, the IC50 was 1.7 µM.

`Cc1cc(Br)ccc1N1C(=O)/C(=C/c2ccco2)C(=O)NC1=S`: the half-maximal inhibitory concentration (IC50) is 4 µM.

The values are drawn from PubChem BioAssay AID367 (MTDP, 2006).
